In brackets after ≈: the same amount, converted by molar mass.
Legend:
[1] = system: Hepatitis C virus; experiment: Antiviral activity against Hepatitis C virus genotype 1b infected in human HuH7 cells after 48 hrs by luciferase reporter gene assay; assay type: functional, organism-based, Hepacivirus hominis; conditions: Huh-7, 48 h
[2] = system: Hepatitis C virus; experiment: Antiviral activity against Hepatitis C virus genotype 1a infected in human HuH7 cells after 48 hrs by luciferase reporter gene assay; assay type: functional, organism-based, Hepacivirus hominis; conditions: subtype 1a, Huh-7, 48 h
[3] = system: Hepatocyte; experiment: Half life in rat hepatocytes assessed as 5-((2-(2,3-Difluorophenyl)-5H-imidazo[4,5-d]pyridazin-5-yl)-methyl)-3-(4-propoxy-2-(trifluoromethyl)phenyl)isoxazole level; assay type: ADME, cell-based
[4] = Solubility of the compound in phosphate buffered saline at pH 7.4 after 1 hr by chemiluminescence nitrogen detection assay; assay type: physicochemical
[5] = Stability of the compound in blood (unknown origin) assessed as 5-((2-(2,3-Difluorophenyl)-5H-imidazo[4,5-d]pyridazin-5-yl)-methyl)-3-(4-propoxy-2-(trifluoromethyl)phenyl)isoxazole level at 1 uM up to 60 mins by LC/MS/MS analysis; assay type: ADME, tissue-based; conditions: 1 h
[6] = Stability in rat microsomes assessed as 5-((2-(2,3-Difluorophenyl)-5H-imidazo[4,5-d]pyridazin-5-yl)-methyl)-3-(4-propoxy-2-(trifluoromethyl)phenyl)isoxazole level at 0.5 uM by LC/MS/MS analysis; assay type: ADME, Microsome
[7] = Oral bioavailability in beagle dog at 5 mg/kg by LC/MS/MS analysis; assay type: ADME, organism-based, Canis lupus familiaris; conditions: in vivo
[8] = Oral bioavailability in CD rat at 5 mg/kg by LC/MS/MS analysis; assay type: ADME, organism-based; conditions: in vivo
[9] = Half life in blood (unknown origin) assessed as 5-((2-(2,3-Difluorophenyl)-5H-imidazo[4,5-d]pyridazin-5-yl)-methyl)-3-(4-propoxy-2-(trifluoromethyl)phenyl)isoxazole level; assay type: ADME, tissue-based
[10] = AUC in CD rat at 1000 mg/kg by LC/MS/MS analysis; assay type: ADME, organism-based; set-up: dose 1000 mg/kg; conditions: plasma
[11] = Stability of the compound in water assessed as 5-((2-(2,3-Difluorophenyl)-5H-imidazo[4,5-d]pyridazin-5-yl)-methyl)-3-(4-propoxy-2-(trifluoromethyl)phenyl)isoxazole level at 1 uM at pH 2 up to 60 mins by LC/MS/MS analysis; assay type: physicochemical; conditions: buffer, pH 2, 1 h
[12] = Stability of the compound in water assessed as 5-((2-(2,3-Difluorophenyl)-5H-imidazo[4,5-d]pyridazin-5-yl)-methyl)-3-(4-propoxy-2-(trifluoromethyl)phenyl)isoxazole level at 1 uM at pH 7 up to 60 mins by LC/MS/MS analysis; assay type: physicochemical; conditions: buffer, pH 7, 1 h
[13] = system: Hepatocyte; experiment: Stability in rat hepatocytes assessed as 5-((2-(2,3-Difluorophenyl)-5H-imidazo[4,5-d]pyridazin-5-yl)-methyl)-3-(4-propoxy-2-(trifluoromethyl)phenyl)isoxazole level at 0.5 uM by LC/MS/MS analysis; assay type: ADME, cell-based
[14] = system: Canis familiaris; experiment: Hepatotoxicity in beagle dog at 10 to 600 mg/kg/day, po qd for 7 days; assay type: toxicity, organism-based, Canis lupus familiaris; set-up: route oral; conditions: in vivo, 168 h
[15] = system: Rattus norvegicus; experiment: Toxicity in rat at 10 to 1000 mg/kg/day, po qd for 7 days; assay type: organism-based; set-up: route oral; conditions: in vivo, 168 h
[16] = molecular target: T1, Voltage-gated inwardly rectifying potassium channel KCNH2 (Homo sapiens, UniProt Q12809); experiment: Inhibition of human ERG expressed in CHO cells
T1 sequence (Q12809 whole entry): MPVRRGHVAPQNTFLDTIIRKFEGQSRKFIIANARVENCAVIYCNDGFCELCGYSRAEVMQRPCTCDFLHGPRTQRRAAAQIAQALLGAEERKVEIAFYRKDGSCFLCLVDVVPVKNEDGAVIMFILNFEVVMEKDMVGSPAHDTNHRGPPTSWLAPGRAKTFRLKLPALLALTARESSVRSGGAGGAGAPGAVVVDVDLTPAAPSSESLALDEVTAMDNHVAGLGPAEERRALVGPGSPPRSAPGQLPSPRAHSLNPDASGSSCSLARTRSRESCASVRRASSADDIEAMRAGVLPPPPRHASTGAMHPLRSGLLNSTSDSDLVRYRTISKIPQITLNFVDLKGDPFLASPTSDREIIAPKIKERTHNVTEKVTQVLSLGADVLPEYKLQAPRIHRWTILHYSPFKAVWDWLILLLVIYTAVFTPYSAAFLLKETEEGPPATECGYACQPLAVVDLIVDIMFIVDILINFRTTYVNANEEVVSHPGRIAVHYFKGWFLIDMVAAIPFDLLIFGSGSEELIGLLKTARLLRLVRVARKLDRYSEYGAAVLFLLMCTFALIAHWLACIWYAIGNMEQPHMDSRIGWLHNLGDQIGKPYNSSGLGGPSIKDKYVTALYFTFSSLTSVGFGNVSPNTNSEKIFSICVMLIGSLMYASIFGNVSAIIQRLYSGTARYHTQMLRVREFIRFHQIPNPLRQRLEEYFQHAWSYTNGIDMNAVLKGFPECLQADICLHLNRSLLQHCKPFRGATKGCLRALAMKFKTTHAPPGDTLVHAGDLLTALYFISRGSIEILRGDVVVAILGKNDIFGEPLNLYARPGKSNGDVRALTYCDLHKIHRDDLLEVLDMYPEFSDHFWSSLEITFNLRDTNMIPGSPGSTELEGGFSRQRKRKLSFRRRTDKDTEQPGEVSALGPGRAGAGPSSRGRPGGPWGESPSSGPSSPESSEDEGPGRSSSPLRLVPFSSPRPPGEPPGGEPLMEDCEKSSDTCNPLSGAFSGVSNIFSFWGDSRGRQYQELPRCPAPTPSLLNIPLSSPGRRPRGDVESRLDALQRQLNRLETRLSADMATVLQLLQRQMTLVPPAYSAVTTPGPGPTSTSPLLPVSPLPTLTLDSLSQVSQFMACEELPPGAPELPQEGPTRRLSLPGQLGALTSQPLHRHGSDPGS

[17] = Stability of the compound in blood (unknown origin) at 1 uM up to 60 mins by LC/MS/MS analysis; assay type: ADME, tissue-based; conditions: 1 h
[18] = system: Hepatocyte; experiment: Stability in rat hepatocytes at 0.5 uM by LC/MS/MS analysis; assay type: ADME, cell-based
[19] = Stability in rat microsomes at 0.5 uM by LC/MS/MS analysis; assay type: ADME, Microsome
[20] = Stability of the compound in water at 1 uM at pH 7 up to 60 mins by LC/MS/MS analysis; assay type: physicochemical; conditions: buffer, pH 7, 1 h
[21] = Stability of the compound in water at 1 uM at pH 2 up to 60 mins by LC/MS/MS analysis; assay type: physicochemical; conditions: buffer, pH 2, 1 h
[22] = Cmax in CD rat at 300 mg/kg by LC/MS/MS analysis; assay type: ADME, organism-based; set-up: dose 300 mg/kg; conditions: in vivo
[23] = Intrinsic clearance in CD rat microsomes; assay type: ADME, Microsome
[24] = AUC in CD rat at 30 mg/kg by LC/MS/MS analysis; assay type: ADME, organism-based; set-up: dose 30 mg/kg; conditions: plasma
[25] = AUC in CD rat at 300 mg/kg by LC/MS/MS analysis; assay type: ADME, organism-based; set-up: dose 300 mg/kg; conditions: plasma
[26] = Volume of distribution in CD rat at 0.5 mg/kg, iv by LC/MS/MS analysis; assay type: ADME, organism-based; set-up: dose 0.5 mg/kg, route intravenous; conditions: in vivo
[27] = AUC in CD rat at 100 mg/kg by LC/MS/MS analysis; assay type: ADME, organism-based; set-up: dose 100 mg/kg; conditions: plasma
[28] = Cmax in CD rat at 100 mg/kg by LC/MS/MS analysis; assay type: ADME, organism-based; set-up: dose 100 mg/kg; conditions: in vivo
[29] = Solubility of the compound in neutral aqueous media at pH 6.8; assay type: physicochemical
[30] = molecular target: T1, Voltage-gated inwardly rectifying potassium channel KCNH2; experiment: Inhibition of human ERG by patch-clamp technique
[31] = Cmax in CD rat at 30 mg/kg by LC/MS/MS analysis; assay type: ADME, organism-based; set-up: dose 30 mg/kg; conditions: in vivo
[32] = Cmax in CD rat at 5 mg/kg by LC/MS/MS analysis; assay type: ADME, organism-based; set-up: dose 5 mg/kg; conditions: in vivo
[33] = Oral bioavailability in CD rat at 1 mg/kg by LC/MS/MS analysis; assay type: ADME, organism-based; conditions: in vivo
[34] = Half life in CD rat at 0.5 mg/kg, iv by LC/MS/MS analysis; assay type: ADME, organism-based; set-up: dose 0.5 mg/kg, route intravenous; conditions: in vivo
[35] = Clearance in CD rat at 0.5 mg/kg, iv by LC/MS/MS analysis; assay type: ADME, organism-based; set-up: dose 0.5 mg/kg, route intravenous; conditions: in vivo
[36] = AUC in CD rat at 5 mg/kg by LC/MS/MS analysis; assay type: ADME, organism-based; set-up: dose 5 mg/kg; conditions: plasma
[37] = Cmax in CD rat at 10 mg/kg by LC/MS/MS analysis; assay type: ADME, organism-based; set-up: dose 10 mg/kg; conditions: in vivo
[38] = AUC in CD rat at 10 mg/kg by LC/MS/MS analysis; assay type: ADME, organism-based; set-up: dose 10 mg/kg; conditions: plasma
[39] = AUC in CD rat at 1 mg/kg, po by LC/MS/MS analysis; assay type: ADME, organism-based; set-up: dose 1 mg/kg, route oral; conditions: plasma

SMILES | EC50 [1] | EC50 [2] | further results
Fc1cccc(-c2nc3cnn(Cc4cc(-c5ccc(C(F)(F)F)cc5C(F)(F)F)no4)cc-3n2)c1 | > 50000 nM |  | 
CCCOc1ccc(-c2cnc(Cn3cc4nc(-c5cccc(F)c5F)nc-4cn3)nc2)c(C(F)(F)F)c1 | 240 nM | 300 nM | 
CC(C)(c1cc(-c2ccc(C(F)(F)F)cc2C(F)(F)F)no1)n1cc2nc(-c3cccc(F)c3F)nc-2cn1 | 1500 nM | 5400 nM | 
CCCOc1ccc(-c2cc(C(C(=O)OC)n3cc4nc(-c5cccc(F)c5F)nc-4cn3)on2)c(C(F)(F)F)c1 (stereo not drawn) | 3 nM | 21 nM | t1/2 [3]: 0.25 h; solubility kinetic at 1 h [4]: 17 µM (≈ 9.75 µg/mL); Stability [5]: Stable; Stability [6]: Stable; bioavailability [7]: 51%; bioavailability [8]: 80%; t1/2 [9]: 0.25 h; AUC [10]: 118000 ng·h/mL; Stability [11]: Stable; Stability [12]: Stable; Stability [13]: Stable
CCCOc1ccc(-c2cc(C(C(=O)OCCCO)n3cc4nc(-c5cccc(F)c5F)nc-4cn3)on2)c(C(F)(F)F)c1 (stereo not drawn) | 6 nM | 23 nM | solubility kinetic at 1 h [4]: 14 µM (≈ 8.65 µg/mL); bioavailability [7]: 63%; bioavailability [8]: 91%; AUC [10]: 64000 ng·h/mL
CCCOc1ccc(-c2cc(C(C(=O)OCCOCCO)n3cc4nc(-c5cccc(F)c5F)nc-4cn3)on2)c(C(F)(F)F)c1 (stereo not drawn) | 3 nM | 11 nM | solubility kinetic at 1 h [4]: 24 µM (≈ 15.5 µg/mL); Activity [14]: Toxic; bioavailability [7]: 91%; bioavailability [8]: 98%; AUC [10]: 325000 ng·h/mL; Activity [15]: Non-toxic
Fc1ccccc1-c1nc2cnn(Cc3cc(-c4ccc(Cl)cc4)no3)cc-2n1 | 170 nM |  | 
Fc1ccccc1-c1nc2ccn(Cc3cc(-c4ccc(C(F)(F)F)cc4C(F)(F)F)no3)cc-2n1 |  |  | IC50 [16]: 794 nM
Fc1cccc(-c2nc3cnn(Cc4cc(-c5ccc(C(F)(F)F)nc5)no4)cc-3n2)c1F | 300 nM |  | 
CCCOc1cnc(-c2cc(Cn3cc4nc(-c5cccc(F)c5F)nc-4cn3)on2)cn1 | 220 nM | 1400 nM | 
COc1ncc(-c2cc(Cn3cc4nc(-c5cccc(F)c5F)nc-4cn3)on2)cn1 | > 50000 nM | > 50000 nM | 
Fc1cccc(-c2nc3cnn(Cc4cc(-c5ccc(C(F)(F)F)cc5)no4)cc-3n2)c1F | 24 nM | 70 nM | 
CCCCc1ccc(-c2cc(Cn3cc4nc(-c5cccc(F)c5F)nc-4cn3)on2)cc1 | 10 nM | 80 nM | 
Cc1ccc(-c2cc(Cn3cc4nc(-c5cccc(F)c5F)nc-4cn3)on2)cc1 | 23 nM | 110 nM | 
COc1ccc(-c2cc(Cn3cc4nc(-c5cccc(F)c5F)nc-4cn3)on2)cc1 | 90 nM | 300 nM | 
CCCOc1ccc(-c2cc(Cn3cc4nc(-c5cccc(F)c5F)nc-4cn3)on2)c(C(F)(F)F)c1 | 3 nM | 21 nM | Stability [17]: Stable; solubility kinetic at 1 h [4]: 1.6 µM (≈ 0.825 µg/mL); Stability [18]: Stable; Stability [19]: Stable; bioavailability [7]: 12%; bioavailability [8]: 33%; Stability [20]: Stable; Stability [21]: Stable
Fc1ccccc1-c1nc2cnn(Cc3cc(-c4ccc(C(F)(F)F)cc4C(F)(F)F)no3)cc-2n1 | 110 nM | 3700 nM | 
Fc1cccc(F)c1-c1nc2cnn(Cc3cc(-c4ccc(C(F)(F)F)cc4C(F)(F)F)no3)cc-2n1 | 5000 nM |  | 
FC(F)(F)c1ccc(-c2cc(Cn3cc4nc(-c5cccs5)nc-4cn3)on2)c(C(F)(F)F)c1 | 1750 nM |  | 
CCCOc1ccc(-c2cc(Cn3cc4nc(-c5cccc(F)c5F)nc-4cn3)no2)cc1 | 40 nM | 110 nM | 
Fc1cccc(-c2nc3cnn(Cc4cn(-c5ccc(C(F)(F)F)cc5C(F)(F)F)cn4)cc-3n2)c1F | 7000 nM | > 50000 nM | 
Fc1cccc(-c2nc3cnn(CCCc4ccc(C(F)(F)F)cc4C(F)(F)F)cc-3n2)c1F | 52000 nM | 16000 nM | 
Fc1cccc(-c2nc3cnn(Cc4ccc(-c5ccc(C(F)(F)F)cc5C(F)(F)F)cc4)cc-3n2)c1F | 18 nM | 120 nM | 
Fc1cccc(-c2nc3cnn(Cc4ccc(-c5ccc(C(F)(F)F)cc5C(F)(F)F)cn4)cc-3n2)c1F | 40 nM | 300 nM | 
Fc1cccc(-c2nc3cnn(Cc4ccc(-c5ccc(C(F)(F)F)cc5C(F)(F)F)nc4)cc-3n2)c1F | 16 nM | 160 nM | Cmax [22]: 27300 ng/mL; CLint scaled [23]: 22 mL/min/kg; AUC [24]: 24000 ng·h/mL; AUC [25]: 280000 ng·h/mL; Vd [26]: 2.04 L/kg; AUC [27]: 69000 ng·h/mL; Cmax [28]: 7600 ng/mL; solubility [29]: 9 µg/mL (≈ 16.8 µM); EC50 [30]: 7940 nM; Cmax [31]: 2800 ng/mL; Cmax [32]: 1100 ng/mL; bioavailability [33]: 78%; half-life [34]: 3.14 h; clearance [35]: 9 mL/min/kg; AUC [36]: 8000 ng·h/mL; Cmax [37]: 2700 ng/mL; AUC [38]: 24000 ng·h/mL; AUC [39]: 1500 ng·h/mL
CCCOc1ccc(-c2ccc(Cn3cc4nc(-c5cccc(F)c5F)nc-4cn3)nn2)c(C(F)(F)F)c1 | 7 nM | 18 nM | 
CCCOc1ccc(-c2cnc(Cn3cc4nc(-c5cccc(F)c5F)nc-4cn3)cn2)c(C(F)(F)F)c1 | 30 nM | 60 nM | 
CC(c1cc(-c2ccc(C(F)(F)F)cc2C(F)(F)F)no1)n1cc2nc(-c3cccc(F)c3F)nc-2cn1 (racemic) | 80 nM | 900 nM | 
Fc1ccccc1-c1nc2ccn(Cc3ccc(-c4ccc(C(F)(F)F)cc4C(F)(F)F)nn3)cc-2n1 [TEGOBUVIR] | 5 nM |  | 

— ChEMBL document CHEMBL3120081, “Imidazopyridazine hepatitis C virus polymerase inhibitors. Structure-activity relationship studies and the discovery of a novel, traceless prodrug mechanism” (J Med Chem, 2014)
